Reference: patent US20210198201A1, “Orally Active Melanocortin Receptor-4 Compounds” (Palatin Technologies, Inc., priority 2018, published 2021)

Experiments:
[1] = Plasma concentrations following oral administration in Sprague-Dawley rats; type: in vivo, rat; details: oral 30 mg/kg
Experimental: Plasma samples were measured at 15 minutes (2 animals) and 30 minutes, 1 hour, 2 hours, 4 hours, 8 hours and 24 hours (3 animals) post oral administration.

mMC1r [2] = molecular target: T1, mMC1r (Mus musculus, UniProt Q01727); test: cAMP assay mMC1r (B16-F1 cells, NDP-α-MSH reference); type: cell-based
T1 construct: endogenous in cells; host or cells: B16-F1
T1 sequence (Q01727 whole entry): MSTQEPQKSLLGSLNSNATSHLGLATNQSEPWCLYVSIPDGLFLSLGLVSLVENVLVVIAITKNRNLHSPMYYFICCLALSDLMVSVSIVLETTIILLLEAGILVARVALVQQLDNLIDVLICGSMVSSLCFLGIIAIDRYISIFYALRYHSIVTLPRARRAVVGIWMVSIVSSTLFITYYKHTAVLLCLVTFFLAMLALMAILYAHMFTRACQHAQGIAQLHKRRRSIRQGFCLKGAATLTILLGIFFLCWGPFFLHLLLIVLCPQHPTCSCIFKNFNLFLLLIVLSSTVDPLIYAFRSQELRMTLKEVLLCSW
Experimental: (§1) Melanocortin receptor binding and function of Compound 7.1 was tested. Ki binding values (nM) were calculated utilizing the percent inhibit of the binding of iodine-125 labeled NDP-α-MSH against B16-F1 cells for mMC1r, and human recombinant CHO cells for hMC3r, hMC4r and hMC5r, with the inhibition constant calculated using the Cheng Prusoff equation. Functional results (EC50 and efficacy) were calculated utilizing cAMP assays with NDP-α-MSH for mMC1r, hMC3r and hMC4r, ACTH for hMC2r, and α-MSH for hMC5r for agonist measures, with the same target cells for melanocortin receptors mMC1r, hMC3r, hMC4r and hMC5r, and human recombinant Cloudman M3 cells for hMC2r.

MC1r = molecular target: T2, MC1r (Homo sapiens, UniProt Q01726); test: Competitive inhibition binding assay, MC1r; details: binding studies
T2 construct: expressed in transfected cells; host or cells: HEK-293 (membrane homogenates)
T2 sequence (Q01726 whole entry): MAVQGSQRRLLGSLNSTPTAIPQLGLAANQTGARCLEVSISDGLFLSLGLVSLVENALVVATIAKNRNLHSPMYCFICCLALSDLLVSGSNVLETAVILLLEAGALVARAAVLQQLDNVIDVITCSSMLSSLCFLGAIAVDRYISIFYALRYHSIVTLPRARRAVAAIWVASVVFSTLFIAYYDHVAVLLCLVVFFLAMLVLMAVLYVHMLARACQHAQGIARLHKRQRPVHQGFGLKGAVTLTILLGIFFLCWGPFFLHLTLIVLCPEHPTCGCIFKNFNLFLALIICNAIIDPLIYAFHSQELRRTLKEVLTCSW
Experimental: (§2) A competitive inhibition binding assay is performed using membrane homogenates prepared from HEK-293 cells that express recombinant hMC1ra, hMC4r, hMC3r, or hMC5r, and from B16-F10 mouse melanoma cells (containing endogenous MC1r). In the examples that follow, all values are for human recombinant receptors unless otherwise noted. Assays are performed in 96 well GF/B Millipore multiscreen filtration plates (MAFB NOB10) pre-coated with 0.5% bovine serum albumin (Fraction V). […] After incubation for 60 to 90 minutes at 37° C., the assay mixture is filtered and the membranes washed three times with ice-cold buffer. Filters are dried and counted in a gamma counter for bound radioactivity.
(§3) Maximal specific binding (100%) is defined as the difference in radioactivity (cpm) bound to cell membranes in the absence and presence of 1 μM NDP-α-MSH. […] Each assay is conducted in duplicate or triplicate and the actual mean values are described, with results less than 0% reported as 0%. Ki values for test compounds are determined using Graph-Pad Prism® curve-fitting software.

C57BL/6 male DIO mice = test: Body weight and food intake in vivo study in diet induced obese mice; design: species or system mouse
Experimental: Compound 7.1 was assessed in a body weight and food intake in vivo study in diet induced obese […] mice. C57BL/6 male DIO mice were utilized, that were 17 weeks of age on arrival. Animals were pre-conditioned on a high-fat diet for 11 weeks by Jackson Labs. […] Animals were single housed within a limited access rodent facility, and provided ad libitum with a commercial rodent diet and free access to drinking water. Animals were randomized into five groups, a vehicle group, three dose levels of compound 7.1 (3 mg/kg, 10 mg/kg and 30 mg/kg), and Peptide A, a positive control cyclic peptide of the formula Ac-Arg-cyclo(Orn-Asn-D-Phe-Arg-Trp-Glu)-NH2. Following three days of sham dosing, animals were dosed for three days, with vehicle or Compound 7.1 dosed orally once daily at within one hour of lights out in the AM, and Peptide A dosed by subcutaneous injection twice daily within one hour before lights out and six hours after lights out. Body weights were measured one hour prior to lights out, and feed weights were measured both one hour prior to lights out and six hours post lights out.
*p<0.05 vs. sham (vehicle control) using two-way ANOVA followed by Dunnett's post-test.
**p<0.01 vs sham (vehicle control) using two-way ANOVA followed by Dunnett's post-test.

hMC3r [3] = molecular target: T3, hMC3r (Homo sapiens, UniProt P41968); test: cAMP assay hMC3r (human recombinant CHO cells, NDP-α-MSH reference); type: cell-based
T3 construct: expressed in transfected cells; host or cells: CHO
T3 sequence (P41968 whole entry): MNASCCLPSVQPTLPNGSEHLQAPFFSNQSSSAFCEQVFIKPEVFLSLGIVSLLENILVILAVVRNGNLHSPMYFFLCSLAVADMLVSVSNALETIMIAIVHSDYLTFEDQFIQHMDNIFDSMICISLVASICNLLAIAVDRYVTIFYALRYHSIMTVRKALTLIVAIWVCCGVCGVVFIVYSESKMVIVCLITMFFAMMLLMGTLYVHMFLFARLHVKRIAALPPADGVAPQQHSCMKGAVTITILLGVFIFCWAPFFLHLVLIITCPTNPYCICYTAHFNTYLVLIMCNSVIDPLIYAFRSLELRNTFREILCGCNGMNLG
Experimental: as §1

hMC5r = molecular target: T4, hMC5r (Homo sapiens, UniProt P33032); test: Binding of iodine-125 labeled NDP-α-MSH, human recombinant CHO cells, hMC5r
T4 construct: expressed in transfected cells; host or cells: CHO
T4 sequence (P33032 whole entry): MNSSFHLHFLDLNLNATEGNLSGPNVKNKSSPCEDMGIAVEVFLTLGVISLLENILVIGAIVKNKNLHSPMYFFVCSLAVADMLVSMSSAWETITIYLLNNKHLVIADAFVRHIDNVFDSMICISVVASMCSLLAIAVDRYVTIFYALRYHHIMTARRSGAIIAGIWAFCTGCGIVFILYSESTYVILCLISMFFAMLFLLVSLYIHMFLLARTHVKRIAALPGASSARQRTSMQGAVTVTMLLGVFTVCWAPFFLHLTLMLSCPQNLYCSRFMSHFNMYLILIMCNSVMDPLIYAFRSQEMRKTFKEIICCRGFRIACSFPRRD
Experimental: as §1

hMC2r = molecular target: T5, hMC2r (Homo sapiens, UniProt Q01718); test: cAMP assay hMC2r (human recombinant Cloudman M3 cells, ACTH reference); type: cell-based
T5 construct: expressed in transfected cells; host or cells: Cloudman M3
T5 sequence (Q01718 whole entry): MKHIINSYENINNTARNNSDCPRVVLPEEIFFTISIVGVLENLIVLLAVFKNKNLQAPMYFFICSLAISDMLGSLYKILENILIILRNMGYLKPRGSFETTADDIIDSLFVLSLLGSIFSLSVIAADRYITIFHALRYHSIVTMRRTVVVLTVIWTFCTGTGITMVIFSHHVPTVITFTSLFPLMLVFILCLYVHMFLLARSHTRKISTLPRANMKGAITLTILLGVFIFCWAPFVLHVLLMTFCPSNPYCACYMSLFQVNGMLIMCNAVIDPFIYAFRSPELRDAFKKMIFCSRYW
T5 sequence (Q9D159 whole entry partner): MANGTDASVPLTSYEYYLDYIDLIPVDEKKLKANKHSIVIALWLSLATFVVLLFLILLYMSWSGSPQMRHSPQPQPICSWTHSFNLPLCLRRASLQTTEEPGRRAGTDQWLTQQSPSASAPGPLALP
Experimental: as §1

mMC1r [4] = molecular target: T1, mMC1r; test: Binding of iodine-125 labeled NDP-α-MSH, B16-F1 cells, mMC1r
Experimental: as §1

hMC3r [5] = molecular target: T3, hMC3r; test: Binding of iodine-125 labeled NDP-α-MSH, human recombinant CHO cells, hMC3r
Experimental: as §1

MC4r [6] = molecular target: T6, MC4r (Homo sapiens, UniProt P32245); test: Competitive inhibition binding assay, MC4r; design: expressed in transfected cells; host or cells: HEK-293 (membrane homogenates); details: binding studies
T6 sequence (P32245 whole entry): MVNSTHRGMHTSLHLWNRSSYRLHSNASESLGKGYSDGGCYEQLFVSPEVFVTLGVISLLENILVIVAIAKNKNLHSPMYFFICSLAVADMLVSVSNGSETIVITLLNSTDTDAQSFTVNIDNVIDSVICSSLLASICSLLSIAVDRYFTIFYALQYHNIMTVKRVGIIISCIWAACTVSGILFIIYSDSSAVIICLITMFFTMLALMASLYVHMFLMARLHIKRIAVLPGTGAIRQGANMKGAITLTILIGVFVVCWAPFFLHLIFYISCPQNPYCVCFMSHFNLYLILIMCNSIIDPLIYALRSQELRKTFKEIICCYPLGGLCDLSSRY
Experimental: as §2, §3
Competitive Binding Assay Using Eu-NDP-α-MSH. Alternatively, a competitive inhibition binding assay is performed employing Eu-NDP-α-MSH (PerkinElmer Life Sciences catalog No. AD0225) with determination by time-resolved fluorometry (TRF) of the lanthanide chelate. […] After incubation for 90 minutes at 37° C., the reaction was stopped by filtration over Acro Well 96-well filter plates (Pall Life Sciences). The filter plates were washed 4 times with 200 μL of ice-cold phosphate-buffered saline. DELFIA Enhancement solution (PerkinElmer Life Sciences) was added to each well. The plates were incubated on a shaker for 15 minutes and read at 340 nm excitation and 615 nm emission wavelengths. Each assay was conducted in duplicate and mean values were utilized. Ki values were determined by curve-fitting with Graph-Pad Prism® software using a one-site fixed-slope competition binding model.

C57Bl/6 DIO mice = test: Oral administration, feed intake and body weight in C57Bl/6 DIO mice (comparison with MC4r knockout); type: in vivo, mouse
Experimental: Feed intake and body weight was evaluated in MCr4 knockout (MC4r−/−) mice (Jackson Laboratories) compared to C57Bl/6 DIO mice. […] Feed weights were taken at time 0, 2, 6 and 24 hours post lights out. […] The change in body weight is shown in FIG. 4 starting on study day 5, the first day of administration of compound 7.1. […] Additionally, there was a statistically significant mean difference, 2.8%, 95% Cl (1.281, 4.253), and p value <0.0001 between DIO mice receiving compound 7.1 and MC4r (−/−) receiving compound 7.1.

MC4r [7] = molecular target: T6, MC4r; test: cAMP assay hMC4r (human recombinant CHO cells, NDP-α-MSH reference); type: cell-based; design: expressed in transfected cells; host or cells: CHO
Experimental: as §1

`CC(=O)N1CCC(N(CC(C)C)N2CCN(C(=O)[C@@H](Cc3ccc(Cl)cc3)NC(=O)C(C)(C)N)CC2)CC1` [Compound 7.1, N-[(1R)-2-[4-[(1-acetyl-4-piperidyl)-isobutyl-amino]piperazin-1-yl]-1-[(4-chlorophenyl)methyl]-2-oxo-ethyl]-2-amino-2-methyl-propanamide] gave a Tax [1] of 2 h, a Cmax ([1]; rat, plasma) of 780 ng/mL and a half-life ([1]; rat, plasma, read-out: terminal half-life (converted)) of 3.94 h. The EC50 (mMC1r [2]) was 460 nM, the Ki (MC1r) was 200 nM and the “effect on body weight (in words)” value (C57BL/6 male DIO mice; 3 mg/kg, day 3) was “body weight loss”. For the same molecule, the “effect on feed intake at 24 hours post lights out (in words)” value (C57BL/6 male DIO mice; 30 mg/kg, entirety of the study, compared with sham animals) was “significantly inhibited feed intake”, the “effect on body weight (in words)” value (C57BL/6 male DIO mice; daily treatment at 10 mg/kg and 30 mg/kg, day 1 to 3) was “significant body weight loss” and the EC50 (hMC3r [3]) was greater than 1000 nM. It also gave a Ki (hMC5r) of 1200 nM, an EC50 (hMC2r) greater than 1000 nM and a Ki (mMC1r [4]) of 93 nM. For the same molecule, the Ki (hMC3r [5]) was 1300 nM, the Ki (MC4r [6]) was 5 nM and the “effect on body weight vs own vehicle group (in words)” value (C57Bl/6 DIO mice; 30 mg/kg two daily administrations via oral gavage) was “significant body weight loss”. The “food consumption vs vehicle only (in words)” value (C57Bl/6 DIO mice; 6 and 24 hour timepoints, 30 mg/kg twice daily oral gavage) was “significantly decreased” and the EC50 (MC4r [7]) was 6 nM.
